pIC50: −log10 of the molar value.
These molecules were tested against BRD4 (Homo sapiens, UniProt O60885) (assay: Time Resolved Fluorescence Resonance Energy Transfer (TR-FRET) binding assay). Conditions: one of the FRET assays described (BRD4 construct not given).

Row | Compound | pIC50
1 | Cc1noc(C)c1-c1cc(C(N)=O)c2c(c1)c1ccc(C(C)(C)O)cc1n2CC1CC1 [Example 53, 9-(cyclopropylmethyl)-3-(3,5-dimethyl-4-isoxazolyl)-7-(1-hydroxy-1-methylethyl)-9H-carbazole-1-carboxamide] | > 6.30
2 | Cc1noc(C)c1-c1cc(C(N)=O)c2c(c1)c1ccc(C(=O)N3CCC(C#N)CC3)cc1n2S(=O)(=O)C1CC1 [Example 20, 7-((4-cyano-1-piperidinyl)carbonyl)-9-(cyclopropylsulfonyl)-3-(3,5-dimethyl-4-isoxazolyl)-9H-carbazole-1-carboxamide] | > 7.30
3 | CC(=O)N(C)c1ccc2c3cc(-c4c(C)noc4C)cc(C(N)=O)c3n(CC3CC3)c2c1 [Example 40, 7-(acetyl(methyl)amino)-9-(cyclopropylmethyl)-3-(3,5-dimethyl-4-isoxazolyl)-9H-carbazole-1-carboxamide] | > 7.30
4 | Cc1noc(C)c1-c1cc(C(N)=O)c2c(c1)c1c(S(C)(=O)=O)cccc1n2CC1CC1 [Example 81, 9-(cyclopropylmethyl)-3-(3,5-dimethyl-4-isoxazolyl)-5-(methylsulfonyl)-9H-carbazole-1-carboxamide] | > 7.30
5 | Cc1noc(C)c1-c1cc(C(N)=O)c2c(c1)c1c(C(=O)N3C[C@@H](C)O[C@@H](C)C3)cc(OC(F)(F)F)cc1n2S(=O)(=O)C1CC1 [Example 75, 9-(cyclopropylsulfonyl)-3-(3,5-dimethyl-4-isoxazolyl)-5-((cis-2,6-dimethyl-4-morpholinyl)carbonyl)-7-(trifluoromethoxy)-9H-carbazole-1-carboxamide] | > 6.30
6 | Cc1noc(C)c1-c1cc(C(N)=O)c2c(c1)c1ccc(OC(=O)N3CCOCC3)cc1n2CC1CC1 [Example 50, 8-carbamoyl-9-(cyclopropylmethyl)-6-(3,5-dimethyl-4-isoxazolyl)-9H-carbazol-2-yl morpholine-4-carboxylate] | > 6.30
7 | Cc1noc(C)c1-c1cc(C(N)=O)c2c(c1)c1ccc(O)cc1n2CC1CC1 [Example 48, 9-(cyclopropylmethyl)-3-(3,5-dimethyl-4-isoxazolyl)-7-hydroxy-9H-carbazole-1-carboxamide] | > 6.30
8 | Cc1noc(C)c1-c1cc(C(N)=O)c2c(c1)c1cc(S(C)(=O)=O)ccc1n2S(=O)(=O)C1CC1 [Example 77, 9-(cyclopropylsulfonyl)-3-(3,5-dimethyl-4-isoxazolyl)-6-(methylsulfonyl)-9H-carbazole-1-carboxamide] | > 6.30
9 | Cc1noc(C)c1-c1cc(-c2nnc[nH]2)c2c(c1)c1ccc(C(=O)N3C[C@@H](C)O[C@@H](C)C3)cc1n2CC1CC1 [Example 85, 9-(cyclopropylmethyl)-3-(3,5-dimethyl-4-isoxazolyl)-7-((cis-2,6-dimethyl-4-morpholinyl)carbonyl)-1-(1H-1,2,4-triazol-3-yl)-9H-carbazole] | > 6.30
10 | Cc1noc(C)c1-c1cc(-c2nc[nH]n2)c2[nH]c3cc(C(=O)N4CCOCC4)ccc3c2c1 [Example 69, 3-(3,5-dimethyl-4-isoxazolyl)-7-(4-morpholinylcarbonyl)-1-(1H-1,2,4-triazol-3-yl)-9H-carbazole] | > 6.30
11 | Cc1noc(C)c1-c1cc(C(N)=O)c2c(c1)c1cc(C(=O)N3CCOCC3)ccc1n2S(=O)(=O)C1CC1 [Example 87, 9-(cyclopropylsulfonyl)-3-(3,5-dimethyl-4-isoxazolyl)-6-(4-morpholinylcarbonyl)-9H-carbazole-1-carboxamide] | > 7.30
12 | Cc1noc(C)c1-c1cc(C(N)=O)c2c(c1)c1ccc(C(=O)N3C[C@@H](C)O[C@@H](C)C3)cc1n2CC1CC1 [Example 2, 9-(cyclopropylmethyl)-3-(3,5-dimethyl-4-isoxazolyl)-7-((cis-2,6-dimethyl-4-morpholinyl)carbonyl)-9H-carbazole-1-carboxamide] | > 7.30
13 | COC1CN(C(=O)c2ccc3c4cc(-c5c(C)noc5C)cc(C(N)=O)c4n(S(C)(=O)=O)c3c2)C1 [Example 14, 3-(3,5-dimethyl-4-isoxazolyl)-7-((3-methoxy-1-azetidinyl)carbonyl)-9-(methylsulfonyl)-9H-carbazole-1-carboxamide] | > 7.30
14 | Cc1noc(C)c1-c1cc(C#N)c2[nH]c3cc(C(=O)N4CCOCC4)ccc3c2c1 [Example 58, 3-(3,5-dimethyl-4-isoxazolyl)-7-(4-morpholinylcarbonyl)-9H-carbazole-1-carbonitrile] | > 5.30
15 | CC(=O)Nc1ccc2c3cc(-c4c(C)noc4C)cc(C(N)=O)c3n(CC3CC3)c2c1 [Example 29, 7-acetamido-9-(cyclopropylmethyl)-3-(3,5-dimethyl-4-isoxazolyl)-9H-carbazole-1-carboxamide] | > 6.30
16 | Cc1noc(C)c1-c1cc(C(N)=O)c2c(c1)c1ccc(C(=O)N3CCC(N(C)C)C3)cc1n2S(C)(=O)=O (stereo not shown) [Example 18, 7-((3-(dimethylamino)-1-pyrrolidinyl)carbonyl)-3-(3,5-dimethyl-4-isoxazolyl)-9-(methylsulfonyl)-9H-carbazole-1-carboxamide] | > 7.30
17 | Cc1noc(C)c1-c1cc(C(N)=O)c2[nH]c3cc(C(=O)N4CCOCC4)ccc3c2c1 [Example 3, 3-(3,5-dimethyl-4-isoxazolyl)-7-(4-morpholinylcarbonyl)-9H-carbazole-1-carboxamide] | > 6.30

Row | Compound | pIC50
18 | Cc1noc(C)c1-c1cc(C(N)=O)c2c(c1)c1ccc(Br)cc1n2CC1CC1 [Example 34, 7-bromo-9-(cyclopropylmethyl)-3-(3,5-dimethyl-4-isoxazolyl)-9H-carbazole-1-carboxamide] | > 6.30
19 | Cc1noc(C)c1-c1cc(C(N)=O)c2c(c1)c1ccc(N)cc1n2CC1CC1 [Example 28, 7-amino-9-(cyclopropylmethyl)-3-(3,5-dimethyl-4-isoxazolyl)-9H-carbazole-1-carboxamide] | > 6.30
20 | Cc1noc(C)c1-c1cc(C(N)=O)c2c(c1)c1ccc(C(=O)N3CCCC(F)C3)cc1n2S(C)(=O)=O (stereo not shown) [Example 13, 3-(3,5-dimethyl-4-isoxazolyl)-7-((3-fluoro-1-piperidinyl)carbonyl)-9-(methylsulfonyl)-9H-carbazole-1-carboxamide] | > 7.30
21 | CCn1c2cc(C(=O)N3CCOCC3)ccc2c2cc(-c3c(C)noc3C)cc(C(N)=S)c21 [Example 67, 3-(3,5-dimethyl-4-isoxazolyl)-9-ethyl-7-(4-morpholinylcarbonyl)-9H-carbazole-1-carbothioamide] | > 6.30
22 | Cc1noc(C)c1-c1cc(C(N)=O)c2c(c1)c1ccc(C(=O)N3CC(F)(F)C3)cc1n2S(C)(=O)=O [Example 11, 7-((3,3-difluoro-1-azetidinyl)carbonyl)-3-(3,5-dimethyl-4-isoxazolyl)-9-(methylsulfonyl)-9H-carbazole-1-carboxamide] | > 7.30
23 | Cc1noc(C)c1-c1cc(C(N)=O)c2c(c1)c1ccc(C(=O)N3CCCOCC3)cc1n2S(=O)(=O)C1CC1 [Example 25, 9-(cyclopropylsulfonyl)-3-(3,5-dimethyl-4-isoxazolyl)-7-(1,4-oxazepan-4-ylcarbonyl)-9H-carbazole-1-carboxamide] | > 7.30
24 | Cc1noc(C)c1-c1cc(C(N)=O)c2[nH]c3cc(C(=O)N4CCCCC4)ccc3c2c1 [Example 1, 3-(3,5-dimethyl-4-isoxazolyl)-7-(1-piperidinylcarbonyl)-9H-carbazole-1-carboxamide] | > 6.30
25 | Cc1noc(C)c1-c1cc(C(N)=O)c2c(c1)c1ccc(C(=O)N3CCCC(F)C3)cc1n2S(=O)(=O)C1CC1 (stereo not shown) [Example 23, 9-(cyclopropylsulfonyl)-3-(3,5-dimethyl-4-isoxazolyl)-7-((3-fluoro-1-piperidinyl)carbonyl)-9H-carbazole-1-carboxamide] | > 7.30
26 | Cc1noc(C)c1-c1cc(C(N)=O)c2c(c1)c1ccc(C(=O)N3CCCC(N(C)C)C3)cc1n2S(C)(=O)=O (stereo not shown) [Example 10, 7-((3-(dimethylamino)-1-piperidinyl)carbonyl)-3-(3,5-dimethyl-4-isoxazolyl)-9-(methylsulfonyl)-9H-carbazole-1-carboxamide] | > 7.30
27 | Cc1noc(C)c1-c1cc(C(N)=S)c2[nH]c3cc(C(=S)N4CCOCC4)ccc3c2c1 [Example 63, 3-(3,5-dimethyl-4-isoxazolyl)-7-(4-morpholinylcarbonothioyl)-9H-carbazole-1-carbothioamide] | > 6.30
28 | Cc1n[nH]c(C)c1-c1cc(C(N)=O)c2c(c1)c1ccc(C(=O)N3C[C@@H](C)O[C@@H](C)C3)cc1n2CC1CC1 [Example 83, 9-(cyclopropylmethyl)-7-((cis-2,6-dimethyl-4-morpholinyl)carbonyl)-3-(3,5-dimethyl-1H-pyrazol-4-yl)-9H-carbazole-1-carboxamide] | > 6.30
29 | Cc1noc(C)c1-c1cc(C(N)=O)c2c(c1)c1ccc(N3CCOC3=O)cc1n2CC1CC1 [Example 45, 9-(cyclopropylmethyl)-3-(3,5-dimethyl-4-isoxazolyl)-7-(2-oxo-1,3-oxazolidin-3-yl)-9H-carbazole-1-carboxamide] | > 6.30
30 | Cc1noc(C)c1-c1cc(C(N)=S)c2[nH]c3cc(C(=O)N4CCOCC4)ccc3c2c1 [Example 64, 3-(3,5-dimethyl-4-isoxazolyl)-7-(4-morpholinylcarbonyl)-9H-carbazole-1-carbothioamide] | > 5.30
31 | Cc1noc(C)c1-c1cc(C(N)=O)c2c(c1)c1ccc(C(=O)N(C)C)cc1n2S(C)(=O)=O [Example 12, 3-(3,5-dimethyl-4-isoxazolyl)-N7,N7-dimethyl-9-(methylsulfonyl)-9H-carbazole-1,7-dicarboxamide] | > 7.30
32 | Cc1noc(C)c1-c1cc(C(N)=O)c2c(c1)c1ccc(C(=O)N3CCCOCC3)cc1n2S(C)(=O)=O [Example 17, 3-(3,5-dimethyl-4-isoxazolyl)-9-(methylsulfonyl)-7-(1,4-oxazepan-4-ylcarbonyl)-9H-carbazole-1-carboxamide] | > 7.30
33 | Cc1noc(C)c1-c1cc(C(N)=O)c2c(c1)c1ccc(C(=O)N3CCOCC3)cc1n2CC1CC1 [Example 4, 9-(cyclopropylmethyl)-3-(3,5-dimethyl-4-isoxazolyl)-7-(4-morpholinylcarbonyl)-9H-carbazole-1-carboxamide] | > 7.30
34 | Cc1noc(C)c1-c1cc(C(N)=O)c2c(c1)c1ccc(NCC3CCCC3)cc1n2CC1CC1 [Example 39, 7-(cyclopentylmethylamino)-9-(cyclopropylmethyl)-3-(3,5-dimethyl-4-isoxazolyl)-9H-carbazole-1-carboxamide] | > 6.30
